Assay: Stability of I3A isoforms in the assay solvent systems over 72 h
Assay type: physicochemical
Experimental: The stability of […] isoforms 'a', 'b' and 'c' in the three sample systems over 72 h (equivalent to the maximum possible length of time the samples might be held in the autosampler during a long HPLC analytical run) was confirmed as follows. Standards of the three isoforms of […] The standards were then each divided into three equal volumes and placed at 2-8° C., room temperature and 40° C. for 72 h and were then again analysed by HPLC.

[1] = Acetonitrile/Citrate buffer (pH 3), 72 h 2-8° C.
[2] = Acetonitrile/Citrate buffer (pH 3), 72 h 40° C.
[3] = Acetonitrile/Citrate buffer (pH 3), 72 h RTP
[4] = Acetonitrile/Citrate buffer (pH 3), Time 0 h
[5] = Acetonitrile/Sodium acetate buffer (pH 4.5), 72 h 2-8° C.
[6] = Acetonitrile/Sodium acetate buffer (pH 4.5), 72 h 40° C.
[7] = Acetonitrile/Sodium acetate buffer (pH 4.5), 72 h RTP
[8] = Acetonitrile/Sodium acetate buffer (pH 4.5), Time 0 h

## CC=C(C)C(=O)OCC1=CC2C(=O)C3(C=C(C)C(O)C3(O)C1O)C(C)CC1C2C1(C)C (stereo not drawn) [Isoform ‘c’, ingenol-20-angelate]
Acetonitrile, 72 h 2-8° C.
  % ‘a’: 1.62%
  % ‘b’: 0%
  % ‘c’: 96.69%
Acetonitrile, 72 h 40° C.
  % ‘a’: 0.6%
  % ‘b’: 0%
  % ‘c’: 97.09%
Acetonitrile, 72 h RTP
  % ‘a’: 1.55%
  % ‘b’: 0.27%
  % ‘c’: 97.19%
Acetonitrile, Time 0 h
  % ‘a’: 1.28%
  % ‘b’: 0.41%
  % ‘c’: 97.30%
[1]
  % ‘a’: 0.87%
  % ‘b’: 0.16%
  % ‘c’: 98.84%
[2]
  % ‘a’: 0%
  % ‘b’: 0%
  % ‘c’: 98.7%
[3]
  % ‘a’: 0.53%
  % ‘b’: 0%
  % ‘c’: 99.24%
[4]
  % ‘a’: 1.12%
  % ‘b’: 0.20%
  % ‘c’: 98.41%
[5]
  % ‘a’: 1.41%
  % ‘b’: 0.27%
  % ‘c’: 97.17%
[6]
  % ‘a’: 0%
  % ‘b’: 0%
  % ‘c’: 97.75%
[7]
  % ‘a’: 0.83%
  % ‘b’: 0%
  % ‘c’: 97.97%
[8]
  % ‘a’: 1.34%
  % ‘b’: 0.45%
  % ‘c’: 97.02%

## CC=C(C)C(=O)OC1C(CO)=CC2C(=O)C3(C=C(C)C(O)C13O)C(C)CC1C2C1(C)C (stereo not drawn) [Isoform ‘a’, ingenol-5-angelate]
Acetonitrile, 72 h 2-8° C.
  % ‘a’: 90.63%
  % ‘b’: 5.71%
  % ‘c’: 2.55%
Acetonitrile, 72 h 40° C.
  % ‘a’: 16.36%
  % ‘b’: 47.01%
  % ‘c’: 35.74%
Acetonitrile, 72 h RTP
  % ‘a’: 86.58%
  % ‘b’: 7.8%
  % ‘c’: 3.65%
Acetonitrile, Time 0 h
  % ‘a’: 96.82%
  % ‘b’: 2.24%
  % ‘c’: 0.29%
[1]
  % ‘a’: 98.31%
  % ‘b’: 1.46%
  % ‘c’: 0%
[2]
  % ‘a’: 98.13%
  % ‘b’: 1.79%
  % ‘c’: 0%
[3]
  % ‘a’: 98.84%
  % ‘b’: 1.08%
  % ‘c’: 0%
[4]
  % ‘a’: 97.91%
  % ‘b’: 1.63%
  % ‘c’: 0%
[5]
  % ‘a’: 96.47%
  % ‘b’: 2.83%
  % ‘c’: 0%
[6]
  % ‘a’: 82.51%
  % ‘b’: 16.62%
  % ‘c’: 0%
[7]
  % ‘a’: 95.25%
  % ‘b’: 4.22%
  % ‘c’: 0%
[8]
  % ‘a’: 96.65%
  % ‘b’: 2.16%
  % ‘c’: 0.23%

— US8735375B2, “Therapeutic compositions” (Leo Laboratories Limited, priority 2005, dated 2014)
